“Also recorded” adds a separate entry of the source.
Experiments:
ATGL [1] = test: qPCR of ATGL mRNA in HepG2 cells; format: cell-based; conditions: 5 μM and 10 μM, 24 hours
Procedure: (§1) Ubiquitination of ATGL by COP1 is a post translational event, therefore, it is expected that the mRNA level of ATGL will not change compared to control upon treatment with the compound of the present disclosure which inhibit COP1. To establish this, HepG2 cells were treated with 5 μM and 10 μM of the compounds 9, 107, 171, 179 and 73 for 24 hours. RNA was isolated using TRIzol reagent followed by chloroform treatment and precipitation with isopropanol. cDNA was obtained from the isolated RNA and qPCR was carried out using SyBr green reagent. COP1 and ATGL gene expression levels were checked. 18s was used as control. FIG. 8 illustrates that compounds exert no effect on the mRNA levels of ATGL.

COP1 [2] = test: qPCR of COP1 mRNA in HepG2 cells; format: cell-based; conditions: 5 μM and 10 μM, 24 hours
Procedure: as §1

[3] = Lipophilicity assay (octanol/buffer); format: physicochemical; conditions: for logD: n-octanol / 10 mM sodium phosphate buffer pH 7.4, LC-UV; for Lipophilicity class from Log D: pH 7.4
Procedure: 1.56 g NaH2PO4·2H2O was dissolved in 0.5 L water in a 1 L beaker. After adjusting pH to 7.4 using NaOH solution, the volume was made up to 1 L. Equal volumes of sodium phosphate buffer (10 mM, pH 7.4) and n-octanol were added to a separation funnel and mixed thoroughly by shaking and inverting the funnel several times. The two layers were allowed to separate for overnight and then dispensed in two separate glass bottles. 10 mM stock solution was prepared in 100% DMSO and stored at 4° C. 495 μL of organic phase (1-octanol) was added to each well of a 2 mL deep well plate, followed by 495 μL of buffer and 10 μL of test compound was added. The plate was incubated for 3 hr at room temperature on a plate shaker at 500 rpm. After incubation, the samples were allowed to equilibrate for 20 min and then centrifuged at 4000 rpm for 30 min for complete phase separation and analysed by LC-UV.
Log D=Log (area of octanol/area of buffer)

Plasma stability assay = format: in vitro ADME, human; conditions: for Mean % remaining at 2 hrs in human Plasma: 1 μM, 37° C., 120 min, LC-MS/MS; for Plasma stability: human plasma, after 2 hours, with respect to Propantheline
Procedure: 1 mM Stock of test compound was prepared from 10 mM initial stock solution of compounds by diluting 10 μL of 10 mM stock with 90 μL of DMSO. Then 10 μL of 1 mM stock was diluted with 90 µL of DMSO to give 100 μM concentration. The frozen plasma was thawed at room temperature and centrifuged at 1400 rpm at 4° C., for 15 minutes. Approximately […] of the clear supernatant fraction was transferred to a separate tube and was used for the assay. Final working stock of 1 μM was prepared by diluting 3 μL of 100 μM with 297 μL of plasma. Plasma containing the test compound was incubated for 120 min at 37° C. in shaker with 500 rpm. 50 μL of aliquot of sample at 0, 15, 30, 60 and 120 minutes were precipitated with 150 μL of acetonitrile containing internal standard and centrifuged at 4000 rpm at 4° C. for 20 minutes. 120 μL of supernatant was diluted with 120 μL of water and analyzed by LC-MS/MS.

COP1 [4] = target: COP1 (Homo sapiens, UniProt Q8NHY2); test: In vitro ubiquitination of purified ATGL by COP1 with UbcH6; format: biochemical; set-up: host or cells: HEK293A; conditions: 5 μM compound, COP1 overexpressing HEK293A lysate
Description: Purification of ATGL protein and obtaining COP1 overexpressing cell lysate: Myc-ATGL plasmid and Myc-DDK-COP1 plasmid ([…] each) were transfected separately in cultured HEK293A cells with the help of Lipofectamine2000 (Invitrogen). Cells were harvested in Lysis Buffer and protein solution was extracted as described previously. The Lysis Buffer used to harvest COP1 overexpressing cells had 0.1% SDS supplemented in it. The concentration of protein was estimated using Bradford assay. For source of E3 ligase, the total cell lysate from COP1 overexpressing HEK293A cells were used.
For purification of Myc-ATGL: 1 ml of Ni^2+-NTA resin (Roche) was taken in a 15 ml centrifuge tube and centrifuged at 2000 RPM for 5 minutes. The upper ethanol layer was discarded and the pellet was washed in 1×PBS twice to remove any remaining traces of ethanol. The pellet was finally washed once with Lysis Buffer for equilibration. […] The tube was incubated overnight at 4° C. in a rotary shaker.
The next day, the solution was centrifuged at 2000 RPM for 10 minutes and the supernatant collected. Lysis Buffer (containing protease inhibitor cocktail twice the previous concentration) was used for washing the beads twice to remove non-specific and unattached reactants in a stringent condition. The beads were finally washed once with 1×PBS containing the same amount of protease inhibitor for equilibration. 300 μl of 500 mM Imidazole (Sigma Aldrich) solution in 1×PBS was added to the resin for elution of ATGL and centrifuged at 2000 RPM for 30 minutes and the eluted protein was collected. To the separated resin, 300 μl of 1M Imidazole solution was added and centrifuged at 2000 RPM for 30 minutes and the second elute was collected. […] of eluted protein from each elution was boiled with 5 μl of Laemmli's buffer at 95° C. for 10 minutes and run in 10% SDS-PAGE gel. The supernatant collected before elution of ATGL and the proteins still attached to the Ni^2+-NTA resin were also run in the SDS-PAGE. The resolved proteins were subsequently transferred on PVDF membranes and probed with anti-myc primary antibody to check the presence of purified ATGL in the elute. Also to check the yield of the purified protein, 40 μl of the elute was run in 10% SDS page and stained with Coomassie Brilliant Blue solution followed by destaining with methanol, glacial acetic acid and water in a 50:40:10 ratio.
For identifying the E2 ubiquitin-conjugating enzyme responsible for ATGL ubiquitination by COP1, an in vitro ubiquitinylation kit (Enzo Life Sciences) was used. The assay was reconstituted as per manufacturer's protocol with the panel of E2 conjugating enzymes provided and other required components at the mentioned concentrations. The reaction was carried out for 6 hours following which it was quenched as per directions with the provided 2× non-reducing gel buffer and then analysed by western blotting.
Having identified the E2 ubiquitin conjugating enzyme as UbcH6, ubiquitination assay was set up in vitro as described previously with 5 μM of the compound 9, 107, 171, 179 and 73 followed by quenching and analysis by western blotting.
Ubiquitination of a target protein is carried out in a three step process involving three different enzymes: E1 ubiquitin activating enzyme, E2 ubiquitin conjugating enzyme and E3 ubiquitin ligase. In humans, there is only one E1 ubiquitin activating enzyme and multiple E2 and E3 enzymes. […]

ATGL [5] = test: Western blot of ATGL level in HepG2 cells; format: cell-based; set-up: key to Increase in ATGL level: + = slight or in insignificant; ++ = Moderate; +++ and ++++ = active; +++ and ++++ = active; +++++ = very active; conditions: for Increase in ATGL level: HepG2 cells, score
Procedure, shortened: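 HepG2 cells were treated with compound 24 h (10 μM screen; 50 nM–5 μM dose series) and lysed. 30 μg protein was western blotted for ATGL, with actin as loading reference. ATGL increase was expressed as percent of the 1.6-fold siCOP1 maximum and plotted against log concentration for EC50.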

[6] = Metabolic stability using Human Liver Microsomes; format: in vitro ADME; conditions: for % QH (Well stirred model): NADPH, 0-60 min
Procedure: 1 mM stock solution of test compound was prepared in DMSO and diluted with Acetonitrile:Water (1:1) to get a 100 μM working concentration. 100 mL of Milli Q water was added to K2HPO4 (1.398 g) and KH2PO4 (0.27 g) to get final pH 7.4 solution of potassium phosphate buffer. […] The above mixture was pre incubated for 15 minutes at 37° C. After pre incubation, 32.5 μL of the mixture was added to 17.5 μL of buffer, this was incubated for 60 minutes at 37° C. [60 min Without Cofactor (NADPH)]. 16.25 μL of the pre incubated mixture and 8.75 μL of cofactor was added to 150 μL of acetonitrile containing internal standard [0 min Sample]. 62 μL of cofactor was added to remaining pre incubation mixture [Incubation mixture]. 25 μL of incubation mixture at 0, 5, 15, 30, 60 min and 60 min without cofactor were precipitated with 150 μL of acetonitrile containing internal standard, vortexed and centrifuged at 4000 rpm at 4° C. for 20 minutes. 120 μL of supernatant was diluted with 120 μL of water and analyzed by LC-MS/MS [sample preparation].

HepG2 cells [7] = test: Basal oxygen consumption rate (OCR) by Seahorse; format: cell-based; conditions: 5 μM, 24 hours, hydrochloride
Procedure: HepG2 cells were plated in Seahorse cell culture microplates (24 well). Cells were treated with 5 μM of compounds 9, 107, 238 and 238a for 24 hours. The calibrator plate was dipped in the calibrator solution and incubated overnight at 37° C. in a non-CO2 incubator. The next day, cells were washed with Agilent Seahorse XF Base Medium, Minimal DMEM twice, making sure to leave at least 50 μl of media in the wells and incubated for 1 hour at 37° C. in a non-CO2 incubator. Following this, oxygen consumption rate was measured in the Seahorse instrument. FIG. 12 illustrates basal oxygen consumption rate of compounds 9, 107, 238a, and 238.

HepG2 cells [8] = test: Confocal microscopy: lipid droplets in oleate induced HepG2 cells; format: cell-based; set-up: key to Reduction in Lipid Droplets: + = slight or in insignificant; ++ = Moderate; +++ and ++++ = active; +++ and ++++ = active; +++++ = very active; conditions: oleate induced HepG2 cells, score
Procedure, shortened: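 HepG2 cells were loaded with 250 μM oleate and given compound in DMSO (10 μM screen; 10 nM–5 μM dose series) for 24 h; BSA as negative control. Lipid droplets stained with BODIPY/Hoechst, imaged confocally; mean droplets per cell counted over ~20 cells versus oleate-only cells.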

Sequence of COP1 (Homo sapiens, UniProt Q8NHY2) (Q8NHY2 whole entry): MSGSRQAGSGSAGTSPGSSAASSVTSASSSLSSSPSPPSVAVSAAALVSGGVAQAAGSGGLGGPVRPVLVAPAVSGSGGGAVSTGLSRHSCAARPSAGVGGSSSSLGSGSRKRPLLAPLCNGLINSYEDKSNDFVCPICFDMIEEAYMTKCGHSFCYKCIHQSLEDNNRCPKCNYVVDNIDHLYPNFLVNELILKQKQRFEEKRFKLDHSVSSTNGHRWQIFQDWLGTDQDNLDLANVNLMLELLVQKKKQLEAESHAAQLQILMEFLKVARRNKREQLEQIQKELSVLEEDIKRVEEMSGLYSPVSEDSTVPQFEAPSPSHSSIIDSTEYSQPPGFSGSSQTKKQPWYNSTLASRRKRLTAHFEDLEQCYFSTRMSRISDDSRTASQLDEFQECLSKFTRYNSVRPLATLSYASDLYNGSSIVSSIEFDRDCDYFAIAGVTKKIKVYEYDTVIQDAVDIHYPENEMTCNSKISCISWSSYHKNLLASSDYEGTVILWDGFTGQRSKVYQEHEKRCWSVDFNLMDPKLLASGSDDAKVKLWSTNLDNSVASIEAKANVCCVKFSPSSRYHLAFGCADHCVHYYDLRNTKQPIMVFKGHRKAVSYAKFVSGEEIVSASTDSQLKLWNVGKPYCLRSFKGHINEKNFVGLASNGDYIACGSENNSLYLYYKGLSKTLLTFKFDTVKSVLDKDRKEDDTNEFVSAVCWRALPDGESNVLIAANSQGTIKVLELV

Row | SMILES | ATGL mRNA level (ATGL [1]) | COP1 mRNA level (COP1 [2]) | logD [3] | Lipophilicity class from Log D [3] | Mean % remaining at 2 hrs in human Plasma (Plasma stability assay) | Plasma stability (Plasma stability assay) | ATGL ubiquitination by COP1 in vitro (COP1 [4]) | Increase in ATGL level (ATGL [5]; western blot) | EC50 (ATGL [5]; fold increase of ATGL by densitometry, as % of 1.6 fold maximum with siCOP1, doses 10-5000 nM, read-out: EC50 (in-vitro)) | ATGL level in HepG2 cells (ATGL [5]; western blot, 24 hours, 10 μM screening or 50 nM-5 μM dose dependent) | Clearance class from % QH [6] | % QH (Well stirred model) [6] | Basal oxygen consumption rate (HepG2 cells [7]) | Reduction in Lipid Droplets (HepG2 cells [8])
1 | COCCn1cnc2ccc(NC(=O)Nc3cccc(C(C)=O)c3)c(Br)c2c1=O [Compound 73, 1-(3-acetylphenyl)-3-(5-bromo-3-(2-methoxyethyl)-4-oxo-3,4-dihydroquinazolin-6-yl)urea] | no significant changes | no significant changes | 1.95 | ideal lipophilicity | 10.3% | lower plasma stability | effective in reducing the ubiquitination of ATGL by COP1 |  |  |  |  |  |  | 
2 | CCC(COC)n1cnc2ccc(NC(=O)Nc3cccc(C(C)=O)c3)cc2c1=O (stereo not shown) [Compound 171, 1-(3-acetylphenyl)-3-(3-(1-methoxybutan-2-yl)-4-oxo-3,4-dihydroquinazolin-6-yl)urea] | no significant changes | no significant changes |  |  |  |  | effective in reducing the ubiquitination of ATGL by COP1 | +++ |  |  |  |  |  | 
3 | COCCn1c(-c2ccccn2)nc2ccc(NC(=O)Nc3cccc(C(C)=O)c3)cc2c1=O [Compound 211, 1-(3-acetylphenyl)-3-(3-(2-methoxyethyl)-4-oxo-2-(pyridin-2-yl)-3,4-dihydroquinazolin-6-yl)urea] |  |  | 2.48 | ideal lipophilicity | 110.3% | good plasma stability |  |  | 199 nM | increased ATGL level | medium clearance | 38.8% |  | 
4 | COCCn1c(CN2CCCCC2)nc2ccc(NC(=O)Nc3cccc(C(C)=O)c3)cc2c1=O.Cl [Compound 238a, 1-(3-acetylphenyl)-3-(3-(2-methoxyethyl)-4-oxo-2-(piperidin-1-ylmethyl)-3,4-dihydroquinazolin-6-yl)urea hydrochloride] |  |  |  |  |  |  |  |  |  |  |  |  | higher oxygen consumption rate compared to control; also recorded: increase in the basal OCR values | 
5 | CC(=O)c1cccc(NC(=O)Nc2ccc3ncn(CC(=O)Nc4ccccc4F)c(=O)c3c2)c1 [Compound 253, 2-(6-(3-(3-acetylphenyl)ureido)-4-oxoquinazolin-3 (4H)-yl)-N-(2-fluorophenyl)acetamide] |  |  | 3.01 | ideal lipophilicity | 67.2% | good plasma stability |  | + |  |  | lower clearance | 29.8% |  | ++

Source: patent US12528777B2, “Quinazolinones derivatives for treatment of non-alcoholic fatty liver disease, preparation and use thereof” (Council of Scientific and Industrial Research, priority 2020, dated 2026)
